How the values were obtained:
Assay type in all cases: in vivo
Conyza canadensis = assay: LTP post-emergence greenhouse test; settings: Dosage 2000 g/ha
Setaria viridis = assay: LTP post-emergence greenhouse test; settings: Dosage 2000 g/ha
Ambrosia artemisiifolia = assay: LTP post-emergence greenhouse test; settings: Dosage 2000 g/ha
Digitaria sanguinalis = assay: LTP post-emergence greenhouse test; settings: Dosage 2000 g/ha
Eragrostis teff = assay: HTPS pre-emergence application on monocot model plant
Experimental: The plates were placed in a controlled greenhouse in a random order inside a bath which allows flooding irrigation with tap water supplemented with a fertilizer. Applied compounds were dissolved into a final solution of 50% acetone, 49.9% DDW, 0.1% tween-20. A 96 well plate was used as a stock plate for preparing application solutions for 8 repeats. Each row contained different concentrations per chemical. Maximal concentration for application was 1.5 Kg/Ha and dilution factor is 2.5. Chemical application was performed one day after thinning out in a chemical hood. […] applied on first two true leaves in each well using 12 channel pipettes. Data collection: RGB (red, green, blue) data for green area per well was documented using camera. Data is collected at a few time points during the experiment: one day after thinning and before chemical application, two-, six- or nine-days post application. During the last two documentations, visual phenotyping was performed. Data analysis: Given RGB results and visual phenotype scores, a student t-test conducted to compare between treatment and control performance for continuous data (RGB) and Fisher exact test to analyze the non-continuous data (phenotypic scores). Dose-Response curves are generated for each treatment to infer ED50 and max. inhibition parameters, using treatment's log concentration range as the […] and normalized green area. […] Plate imaging performed at 11 and 18 DAA. RGB data for green area per well was documented and used to extract % inhibition. Dose-Response curves were built for each treatment to infer EC50, EC75 and EC90 parameters, using treatment's log concentration range as the independent variable and normalized green area as the dependent variable. Treatments were compared to controls performance given RGB results and using student's t-test (p-val≤0.05). Compounds 104-154 were applied in either or both pre- and post-emergence mode to either or both monocot and dicot model plants, following the methods described above. The compounds were applied as a gradient of concentrations as listed above, from which the ED50 was calculated.

Arabidopsis thaliana = assay: HTPS post-emergence application on miniature dicot model plant
Experimental: The plates were placed in a controlled greenhouse in a random order inside a bath which allows flooding irrigation with tap water supplemented with a fertilizer. Applied compounds were dissolved into a final solution of 50% acetone, 49.9% DDW, 0.1% tween-20. A 96 well plate was used as a stock plate for preparing application solutions for 8 repeats. Each row contained different concentrations per chemical. Maximal concentration for application was 1.5 Kg/Ha and dilution factor is 2.5. Chemical application was performed one day after thinning out in a chemical hood. […] applied on first two true leaves in each well using 12 channel pipettes. Data collection: RGB (red, green, blue) data for green area per well was documented using camera. Data is collected at a few time points during the experiment: one day after thinning and before chemical application, two-, six- or nine-days post application. During the last two documentations, visual phenotyping was performed. Data analysis: Given RGB results and visual phenotype scores, a student t-test conducted to compare between treatment and control performance for continuous data (RGB) and Fisher exact test to analyze the non-continuous data (phenotypic scores). Dose-Response curves are generated for each treatment to infer ED50 and max. inhibition parameters, using treatment's log concentration range as the […] variable and normalized green area. Plate imaging performed at 11 and 18 DAA. RGB data for green area per well was documented and used to extract % inhibition. Dose-Response curves were built for each treatment to infer EC50, EC75 and EC90 parameters, using treatment's log concentration range as the independent variable and normalized green area as the dependent variable. Treatments were compared to controls performance given RGB results and using student's t-test (p-val≤0.05). Compounds 104-154 were applied in either or both pre- and post-emergence mode to either or both monocot and dicot model plants, following the methods described above. The compounds were applied as a gradient of concentrations as listed above, from which the ED50 was calculated.

Amaranthus tuberculatus = assay: LTP post-emergence greenhouse test; settings: Dosage 2000 g/ha
Experimental: A basic panel of eight weed species (Table 3) sowed in 4×4×7 cm plastic pots containing a garden mix (klasmann). Each specie was sowed in a separate pot. In each pot, 10-15 seeds were sowed according to the specie viability. Timing of application determined at a 1-2 true leaf stage. The plants grew for 30 days in a controlled greenhouse (26±2° C. day, 20±2° C. night). Hood irrigation (tap water+Shefer 5:3:8 8 mM) was given at a 50% water content by weight. Two days before application, the tested plants thinned down to three plants per pot. Compounds were soluble in water (DDW), and commercial herbicide control was soluble in formulation B (Table 4). Before application, 1% (v/v) crop oil and 0.02% (v/v) surfactant (Tergitol™ 15-S-7) were added to the solution. […] Plants were evaluated at 3 time points (4, 8, 12 days after application (DAA)). At each time point, visual phenotyping was recorded using a scale of 0-6 (0: no visible effect, 6: maximum effect). […]
Post-emergence advanced wide panel experiment included 24 weed species (Table 5). […] Visual phenotyping was recorded at 4, 11, 17 and 20 DAA using a scale of 0-6 (0: no visible effect, 6: maximum effect). […] Statistical analysis for visual phenotyping determined by a median value of ≥3.5 and Fisher test (pval≤0.05). Statistical analysis for dry weight determined by % inhibition ≥50 and T test (pval≤0.05), as well as Wilcox test (pval≤0.05).

Amaranthus palmeri = assay: LTP post-emergence greenhouse test; settings: Dosage 2000 g/ha
[1] = dose-response of normalized green area

C[C@@H](O)[C@@H](N)CCCCC(=O)O [Compound 104, (6S,7R)-6-amino-7-hydroxyoctanoic acid]
Herbicidal activity (In-planta), LTP-Post emergence, Conyza canadensis (Conyza canadensis): 95 | Herbicidal activity (In-planta), LTP-Post emergence, Setaria viridis (Setaria viridis): 90-95 | Herbicidal activity (In-planta), LTP-Post emergence, Ambrosia artemisiifolia (Ambrosia artemisiifolia): 70-80 | Herbicidal activity (In-planta), LTP-Post emergence, Digitaria sanguinalis (Digitaria sanguinalis): 95 | ED50 (g/ha) (Eragrostis teff; [1]): 35 g/ha | Max Inhibition (%) (Eragrostis teff; green area (RGB)): 100% | Emax (Arabidopsis thaliana; Arabidopsis thaliana, post-emergence, green area (RGB), read-out: Max Inhibition (%)): 100% | ED50 (g/ha) (Arabidopsis thaliana; [1]): 0.2 g/ha | Herbicidal activity (In-planta), LTP-Post emergence, Amaranthus tuberculatus (Amaranthus tuberculatus): 80 | Herbicidal activity (In-planta), LTP-Post emergence, Amaranthus palmeri (Amaranthus palmeri): 90
